Laboratory results as given in ChEMBL document CHEMBL6153041, “Discovery of High-Affinity SMARCA2/4 Bromodomain Ligands and Development of Potent and Exceptionally Selective SMARCA2 PROTAC Degraders” (J Med Chem, 2025).
Values belong to the compound of their own block, whether it stands above or below them.

What was measured:
[1] = target: T1, von Hippel-Lindau disease tumor suppressor/SWI/SNF-related matrix-associated actin-dependent regulator of chromatin subfamily A member 2 (Homo sapiens, UniProt P51531+P40337); assay: PROTAC activity at VHL1/SMARCA2 in human genetically modified Hela cells assessed as degradation measured after 24 hrs incubation by Nano-Glo HiBiT Lytic Detection Assay; type: cell-based
[2] = target: T1, von Hippel-Lindau disease tumor suppressor/SWI/SNF-related matrix-associated actin-dependent regulator of chromatin subfamily A member 2; assay: PROTAC activity at VHL1/SMARCA2 in human genetically modified Hela cells assessed as maximal degradation measured after 24 hrs incubation by Nano-Glo HiBiT Lytic Detection Assay relative to control; type: cell-based
[3] = target: T2, von Hippel-Lindau disease tumor suppressor/SWI/SNF-related matrix-associated actin-dependent regulator of chromatin subfamily A member 4 (Homo sapiens, UniProt P51532+P40337); assay: PROTAC activity at VHL1/SMARCA4 in human genetically modified Hela cells assessed as degradation measured after 24 hrs incubation by Nano-Glo HiBiT Lytic Detection Assay; type: cell-based
Target sequence in this assay (P51532 whole entry): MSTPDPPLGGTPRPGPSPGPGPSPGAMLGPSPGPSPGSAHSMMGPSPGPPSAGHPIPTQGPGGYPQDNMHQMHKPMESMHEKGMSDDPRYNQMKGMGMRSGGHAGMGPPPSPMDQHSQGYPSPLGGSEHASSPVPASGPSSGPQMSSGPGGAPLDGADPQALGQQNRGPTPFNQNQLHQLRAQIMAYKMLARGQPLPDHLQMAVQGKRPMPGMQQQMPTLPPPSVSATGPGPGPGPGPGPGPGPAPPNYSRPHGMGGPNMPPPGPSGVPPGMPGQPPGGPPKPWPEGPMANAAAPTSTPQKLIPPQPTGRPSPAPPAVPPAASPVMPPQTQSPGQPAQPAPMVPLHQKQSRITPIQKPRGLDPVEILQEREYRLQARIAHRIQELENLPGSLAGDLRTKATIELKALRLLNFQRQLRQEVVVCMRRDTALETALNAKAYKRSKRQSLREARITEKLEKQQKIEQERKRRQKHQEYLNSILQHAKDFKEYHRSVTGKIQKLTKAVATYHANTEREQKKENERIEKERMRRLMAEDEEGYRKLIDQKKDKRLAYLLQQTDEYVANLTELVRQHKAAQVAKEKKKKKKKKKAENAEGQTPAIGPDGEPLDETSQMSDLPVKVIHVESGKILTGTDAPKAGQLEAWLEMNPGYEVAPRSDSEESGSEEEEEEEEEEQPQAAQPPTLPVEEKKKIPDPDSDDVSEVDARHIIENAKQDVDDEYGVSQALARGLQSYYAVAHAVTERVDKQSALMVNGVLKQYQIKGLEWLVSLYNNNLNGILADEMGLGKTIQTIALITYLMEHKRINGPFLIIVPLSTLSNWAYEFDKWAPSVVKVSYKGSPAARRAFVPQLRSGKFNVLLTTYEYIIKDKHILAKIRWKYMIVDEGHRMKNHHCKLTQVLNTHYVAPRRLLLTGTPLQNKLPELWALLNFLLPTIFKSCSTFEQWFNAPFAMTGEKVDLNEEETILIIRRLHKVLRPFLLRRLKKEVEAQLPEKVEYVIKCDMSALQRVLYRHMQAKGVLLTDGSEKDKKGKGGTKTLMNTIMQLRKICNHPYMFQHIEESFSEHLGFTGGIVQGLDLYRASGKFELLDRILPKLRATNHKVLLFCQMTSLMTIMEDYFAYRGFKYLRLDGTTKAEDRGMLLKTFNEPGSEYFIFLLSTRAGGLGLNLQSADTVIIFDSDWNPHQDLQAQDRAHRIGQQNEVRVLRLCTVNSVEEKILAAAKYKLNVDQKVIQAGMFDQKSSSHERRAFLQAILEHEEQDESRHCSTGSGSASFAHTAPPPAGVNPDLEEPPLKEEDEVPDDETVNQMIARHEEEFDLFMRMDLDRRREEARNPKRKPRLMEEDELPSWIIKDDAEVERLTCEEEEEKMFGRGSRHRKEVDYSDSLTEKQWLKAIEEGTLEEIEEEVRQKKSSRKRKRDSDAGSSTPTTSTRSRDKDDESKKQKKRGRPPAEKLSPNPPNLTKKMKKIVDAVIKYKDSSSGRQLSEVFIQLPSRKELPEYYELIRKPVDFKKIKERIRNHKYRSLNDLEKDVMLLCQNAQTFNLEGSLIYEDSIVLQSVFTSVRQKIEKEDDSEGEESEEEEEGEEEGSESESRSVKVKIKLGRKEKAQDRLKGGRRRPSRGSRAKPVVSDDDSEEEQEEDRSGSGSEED
Target sequence in this assay (P40337 whole entry): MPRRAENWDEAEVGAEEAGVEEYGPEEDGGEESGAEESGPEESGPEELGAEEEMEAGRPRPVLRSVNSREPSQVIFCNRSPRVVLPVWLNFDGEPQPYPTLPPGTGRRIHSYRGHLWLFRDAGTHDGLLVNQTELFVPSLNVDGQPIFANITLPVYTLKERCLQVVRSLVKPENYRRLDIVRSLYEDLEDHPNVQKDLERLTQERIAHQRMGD

[4] = target: T2, von Hippel-Lindau disease tumor suppressor/SWI/SNF-related matrix-associated actin-dependent regulator of chromatin subfamily A member 4; assay: PROTAC activity at VHL1/SMARCA4 in human genetically modified Hela cells assessed as maximal degradation measured after 24 hrs incubation by Nano-Glo HiBiT Lytic Detection Assay relative to control; type: cell-based
Target sequence in this assay (P40337 whole entry, looked up): as the sequence (P40337 whole entry) above
Target sequence in this assay (P51532 whole entry, looked up): as the sequence (P51532 whole entry) above

HeLa = assay: Selectivity ratio, ratio of DC50 for VHL1/SMARCA4 in human genetically modified Hela cells to VHL1/SMARCA2 in human genetically modified Hela cells; type: cell-based
[5] = target: T1, von Hippel-Lindau disease tumor suppressor/SWI/SNF-related matrix-associated actin-dependent regulator of chromatin subfamily A member 2; assay: PROTAC activity at VHL1/SMARCA2 in human genetically modified Hela cells assessed as degradation measured after 8 hrs incubation by Nano-Glo HiBiT Lytic Detection Assay; type: cell-based
[6] = target: T1, von Hippel-Lindau disease tumor suppressor/SWI/SNF-related matrix-associated actin-dependent regulator of chromatin subfamily A member 2; assay: PROTAC activity at VHL1/SMARCA2 in human genetically modified Hela cells assessed as degradation measured after 4 hrs incubation by Nano-Glo HiBiT Lytic Detection Assay; type: cell-based
[7] = target: T1, von Hippel-Lindau disease tumor suppressor/SWI/SNF-related matrix-associated actin-dependent regulator of chromatin subfamily A member 2; assay: PROTAC activity at VHL1/SMARCA2 in human genetically modified Hela cells assessed as degradation measured after 48 hrs incubation by Nano-Glo HiBiT Lytic Detection Assay; type: cell-based
[8] = target: T1, von Hippel-Lindau disease tumor suppressor/SWI/SNF-related matrix-associated actin-dependent regulator of chromatin subfamily A member 2; assay: PROTAC activity at VHL1/SMARCA2 in human genetically modified Hela cells assessed as maximal degradation measured after 4 hrs incubation by Nano-Glo HiBiT Lytic Detection Assay relative to control; type: cell-based
[9] = target: T1, von Hippel-Lindau disease tumor suppressor/SWI/SNF-related matrix-associated actin-dependent regulator of chromatin subfamily A member 2; assay: PROTAC activity at VHL1/SMARCA2 in human genetically modified Hela cells assessed as maximal degradation measured after 8 hrs incubation by Nano-Glo HiBiT Lytic Detection Assay relative to control; type: cell-based
[10] = target: T1, von Hippel-Lindau disease tumor suppressor/SWI/SNF-related matrix-associated actin-dependent regulator of chromatin subfamily A member 2; assay: PROTAC activity at VHL1/SMARCA2 in human genetically modified Hela cells assessed as maximal degradation measured after 48 hrs incubation by Nano-Glo HiBiT Lytic Detection Assay relative to control; type: cell-based
[11] = target: T2, von Hippel-Lindau disease tumor suppressor/SWI/SNF-related matrix-associated actin-dependent regulator of chromatin subfamily A member 4; assay: PROTAC activity at VHL1/SMARCA4 in human genetically modified Hela cells assessed as degradation measured after 4 hrs incubation by Nano-Glo HiBiT Lytic Detection Assay; type: cell-based
Target sequence in this assay (P51532 whole entry): as above
Target sequence in this assay (P40337 whole entry): as the sequence (P40337 whole entry) above

[12] = target: T2, von Hippel-Lindau disease tumor suppressor/SWI/SNF-related matrix-associated actin-dependent regulator of chromatin subfamily A member 4; assay: PROTAC activity at VHL1/SMARCA4 in human genetically modified Hela cells assessed as degradation measured after 8 hrs incubation by Nano-Glo HiBiT Lytic Detection Assay; type: cell-based
Target sequence in this assay (P51532 whole entry): as the sequence (P51532 whole entry) above
Target sequence in this assay (P40337 whole entry): as the sequence (P40337 whole entry) above

[13] = target: T2, von Hippel-Lindau disease tumor suppressor/SWI/SNF-related matrix-associated actin-dependent regulator of chromatin subfamily A member 4; assay: PROTAC activity at VHL1/SMARCA4 in human genetically modified Hela cells assessed as degradation measured after 48 hrs incubation by Nano-Glo HiBiT Lytic Detection Assay; type: cell-based
Target sequence in this assay (P51532 whole entry): as the sequence (P51532 whole entry) above
Target sequence in this assay (P40337 whole entry): as the sequence (P40337 whole entry) above

[14] = target: T2, von Hippel-Lindau disease tumor suppressor/SWI/SNF-related matrix-associated actin-dependent regulator of chromatin subfamily A member 4; assay: PROTAC activity at VHL1/SMARCA4 in human genetically modified Hela cells assessed as maximal degradation measured after 4 hrs incubation by Nano-Glo HiBiT Lytic Detection Assay relative to control; type: cell-based
Target sequence in this assay (P40337 whole entry, looked up): as the sequence (P40337 whole entry) above
Target sequence in this assay (P51532 whole entry, looked up): as the sequence (P51532 whole entry) above

[15] = target: T2, von Hippel-Lindau disease tumor suppressor/SWI/SNF-related matrix-associated actin-dependent regulator of chromatin subfamily A member 4; assay: PROTAC activity at VHL1/SMARCA4 in human genetically modified Hela cells assessed as maximal degradation measured after 8 hrs incubation by Nano-Glo HiBiT Lytic Detection Assay relative to control; type: cell-based
Target sequence in this assay (P40337 whole entry, looked up): as the sequence (P40337 whole entry) above
Target sequence in this assay (P51532 whole entry, looked up): as the sequence (P51532 whole entry) above

[16] = target: T2, von Hippel-Lindau disease tumor suppressor/SWI/SNF-related matrix-associated actin-dependent regulator of chromatin subfamily A member 4; assay: PROTAC activity at VHL1/SMARCA4 in human genetically modified Hela cells assessed as maximal degradation measured after 48 hrs incubation by Nano-Glo HiBiT Lytic Detection Assay relative to control; type: cell-based
Target sequence in this assay (P40337 whole entry, looked up): as the sequence (P40337 whole entry) above
Target sequence in this assay (P51532 whole entry, looked up): as the sequence (P51532 whole entry) above

[17] = target: T1, von Hippel-Lindau disease tumor suppressor/SWI/SNF-related matrix-associated actin-dependent regulator of chromatin subfamily A member 2; assay: PROTAC activity at VHL1/SMARCA2 in human NCI-H1792 cells assessed as degradation measured after 24 hrs incubation by Western blot analysis; type: cell-based
[18] = target: T1, von Hippel-Lindau disease tumor suppressor/SWI/SNF-related matrix-associated actin-dependent regulator of chromatin subfamily A member 2; assay: PROTAC activity at VHL1/SMARCA2 in human NCI-H1792 cells assessed as maximal degradation measured after 24 hrs incubation by Western blot analysis relative to control; type: cell-based
[19] = target: T2, von Hippel-Lindau disease tumor suppressor/SWI/SNF-related matrix-associated actin-dependent regulator of chromatin subfamily A member 4; assay: PROTAC activity at VHL1/SMARCA4 in human NCI-H1792 cells assessed as degradation measured after 24 hrs incubation by Western blot analysis; type: cell-based
Target sequence in this assay (P51532 whole entry): as above
Target sequence in this assay (P40337 whole entry): as the sequence (P40337 whole entry) above

[20] = target: T2, von Hippel-Lindau disease tumor suppressor/SWI/SNF-related matrix-associated actin-dependent regulator of chromatin subfamily A member 4; assay: PROTAC activity at VHL1/SMARCA4 in human NCI-H1792 cells assessed as maximal degradation measured after 24 hrs incubation by Western blot analysis relative to control; type: cell-based
Target sequence in this assay (P40337 whole entry, looked up): as the sequence (P40337 whole entry) above
Target sequence in this assay (P51532 whole entry, looked up): as the sequence (P51532 whole entry) above

[21] = target: T2, von Hippel-Lindau disease tumor suppressor/SWI/SNF-related matrix-associated actin-dependent regulator of chromatin subfamily A member 4; assay: PROTAC activity at VHL1/SMARCA4 mutant in human SK-MEL-5 cells assessed as degradation measured after 24 hrs incubation by Western blot analysis; type: cell-based
[22] = test system: von Hippel-Lindau disease tumor suppressor/SWI/SNF-related matrix-associated actin-dependent regulator of chromatin subfamily A member 4 (Homo sapiens), P51532+P40337 [UNDEFINED MUTATION]; assay: PROTAC activity at VHL1/SMARCA4 mutant in human SK-MEL-5 cells assessed as maximal degradation measured after 24 hrs incubation by Western blot analysis relative to control; type: cell-based
[23] = target: T2, von Hippel-Lindau disease tumor suppressor/SWI/SNF-related matrix-associated actin-dependent regulator of chromatin subfamily A member 4; assay: PROTAC activity at VHL1/SMARCA4 mutant in human NCI-H838 cells assessed as degradation measured after 24 hrs incubation by Western blot analysis; type: cell-based
[24] = test system: von Hippel-Lindau disease tumor suppressor/SWI/SNF-related matrix-associated actin-dependent regulator of chromatin subfamily A member 4 (Homo sapiens), P51532+P40337 [UNDEFINED MUTATION]; assay: PROTAC activity at VHL1/SMARCA4 mutant in human NCI-H838 cells assessed as maximal degradation measured after 24 hrs incubation by Western blot analysis relative to control; type: cell-based
[25] = Anticancer activity against SMARCA4 deficient human NCI-H838 cells assessed as inhibition of cell growth measured after 7 days incubation by WST-8 assay; type: functional; conditions: NCI-H838, 168 h, time 7 day
NCI-H1792 [26] = assay: Anticancer activity against human NCI-H1792 cells harbouring wild type SMARCA4 assessed as inhibition of cell growth measured after 7 days incubation by WST-8 assay; type: functional; conditions: NCI-H1792, 168 h, time 7 day
NCI-H1792 [27] = assay: Anticancer activity against human NCI-H1792 cells harbouring wild type SMARCA4 assessed as maximal inhibition of cell growth measured after 7 days incubation by WST-8 assay relative to control; type: functional; conditions: time 7 day
SK-MEL-28 [28] = assay: Anticancer activity against human SK-MEL-28 cells harbouring wild type SMARCA4 assessed as inhibition of cell growth measured after 7 days incubation by WST-8 assay; type: functional; conditions: SK-MEL-28, 168 h, time 7 day
SK-MEL-28 [29] = assay: Anticancer activity against human SK-MEL-28 cells harbouring wild type SMARCA4 assessed as maximal inhibition of cell growth measured after 7 days incubation by WST-8 assay relative to control; type: functional; conditions: time 7 day
[30] = Anticancer activity against SMARCA4 deficient human NCI-H838 cells assessed as maximal inhibition of cell growth measured after 7 days incubation by WST-8 assay relative to control; type: functional; conditions: time 7 day
SK-MEL-5 [31] = assay: Anticancer activity against SMARCA4 deficient human SK-MEL-5 cells assessed as inhibition of cell growth measured after 7 days incubation by WST-8 assay; type: functional; conditions: SK-MEL-5, 168 h, time 7 day
SK-MEL-5 [32] = assay: Anticancer activity against SMARCA4 deficient human SK-MEL-5 cells assessed as maximal inhibition of cell growth measured after 7 days incubation by WST-8 assay relative to control; type: functional; conditions: time 7 day
[33] = target: SWI/SNF-related matrix-associated actin-dependent regulator of chromatin subfamily A member 4 (Homo sapiens, UniProt P51532); assay: Binding affinity to SMARCA4 (unknown origin) assessed as dissociation constant
[34] = target: T2, von Hippel-Lindau disease tumor suppressor/SWI/SNF-related matrix-associated actin-dependent regulator of chromatin subfamily A member 4; assay: PROTAC activity at VHL/SMARCA4 in human MV4-11 cells assessed as degradation; type: cell-based
Target sequence in this assay (P40337 whole entry, looked up): as the sequence (P40337 whole entry) above
Target sequence in this assay (P51532 whole entry, looked up): as the sequence (P51532 whole entry) above

[35] = target: T1, von Hippel-Lindau disease tumor suppressor/SWI/SNF-related matrix-associated actin-dependent regulator of chromatin subfamily A member 2; assay: PROTAC activity at VHL/SMARCA2 in human MV4-11 cells assessed as maximal degradation relative to control; type: cell-based
[36] = target: T2, von Hippel-Lindau disease tumor suppressor/SWI/SNF-related matrix-associated actin-dependent regulator of chromatin subfamily A member 4; assay: PROTAC activity at VHL/SMARCA4 in human MV4-11 cells assessed as maximal degradation relative to control; type: cell-based

Compound: Cc1ncsc1-c1ccc([C@H](CCCCCN2CCC(c3ccc4c(c3)C3(CCCCC3)c3nc(=O)c5c(Cl)cccc5n3-4)CC2)NC(=O)[C@@H]2C[C@@H](O)CN2C(=O)[C@@H](NC(=O)C2(F)CC2)C(C)(C)C)cc1
- DC50 [1]: 0.4 nM
- Emax [2]: 97%
- DC50 [3]: 3.3 nM
- Emax [4]: 96%
- Ratio (HeLa): 8
- DC50 [5]: 6 nM
- DC50 [6]: 10 nM
- DC50 [7]: 4 nM
- Emax [8]: 97%
- Emax [9]: 97%
- Emax [10]: 99%
- DC50 [11]: 38 nM
- DC50 [12]: 27 nM
- DC50 [13]: 27 nM
- Emax [14]: 96%
- Emax [15]: 96%
- Emax [16]: 98%
- DC50 [17]: 1.7 nM
- Emax [18]: 99%
- DC50 [19]: 26 nM
- Emax [20]: 99%
- DC50 [21]: 81.1 nM
- Emax [22]: 87%
- DC50 [23]: 76.2 nM
- Emax [24]: 89%
- GI50 [25]: 10.5 nM
- GI50 (NCI-H1792 [26]): 10.5 nM
- Imax (NCI-H1792 [27]): 52%
- GI50 (SK-MEL-28 [28]): 24.8 nM
- Imax (SK-MEL-28 [29]): 91%
- Imax [30]: 92%
- GI50 (SK-MEL-5 [31]): 1.1 nM
- Imax (SK-MEL-5 [32]): 96%

- Kd [33]: 12.8 nM
Compound: Cn1cc(-c2cc(-c3ccccc3O)nnc2N)cn1

- Emax [34]: > 95%
- DC50 [35]: 11 nM
- Emax [36]: > 95%
Compound: Cc1ncsc1-c1ccc(CNC(=O)[C@@H]2C[C@@H](O)CN2C(=O)[C@@H](NC(=O)C2(F)CC2)C(C)(C)C)c(OCCOc2ccc(CN3CCN(c4cc(-c5ccccc5O)nnc4N)CC3)cc2)c1
